Assay results from the NIST ThermoML archive (doi:10.1021/je3009649).
± gives the expanded uncertainty stated by the source.

Details: Liquid, Ebulliometric method (Recirculating still)

CCCCN [1-butanamine]
Details | vapor or sublimation pressure [kPa]
308.3 K | 19.99 ± 0.45
314.7 K | 26.66 ± 0.46
319.9 K | 33.33 ± 0.5
328.2 K | 46.66 ± 0.54
334.8 K | 59.99 ± 0.57
337.9 K | 66.66 ± 0.66
345.1 K | 86.66 ± 0.7
350 K | 101.33 ± 0.72

C1CCNC1 [pyrrolidine]
Details | vapor or sublimation pressure [kPa]
316.9 K | 19.99 ± 0.45
323.4 K | 26.66 ± 0.46
329 K | 33.33 ± 0.49
337.6 K | 46.66 ± 0.54
347.5 K | 66.66 ± 0.61
354.9 K | 86.66 ± 0.71
359.4 K | 101.33 ± 0.77

CCNCC [diethylamine]
Details | vapor or sublimation pressure [kPa]
294.7 K | 26.66 ± 0.49
299.5 K | 33.33 ± 0.51
307.6 K | 46.66 ± 0.56
316.7 K | 66.66 ± 0.63
323.9 K | 86.66 ± 0.72
328.3 K | 101.33 ± 0.78
